This series concerns VEGFR2. Kind of series: EC50 of VEGFR2 siRNA candidates before and after modification, knockdown in cells. The conditions noted are these: for EC50: 24 h, 24well; for knockdown effect of the modified sequence compared with unmodified: PANC-1 and MDA-MB-231 cells. It is filed as cell-based, human. The procedure: MDA-MB-231 and U87 cells were seeded in 24-well cell plates (1 × 10^5/well), and then siRNAs (21mer or 25mer or negative control) were transfected with commercial transfection reagent (lipo2000), and the siRNA transfection concentration was 100 nM. Meanwhile, untreated cells were set as blank control. Total RNA was extracted from cells 24 h after transfection. Reverse transcription was performed using the kit to obtain cDNA according to the manufacturer’s instructions. Relative levels of target gene VEGFR2 mRNA expression were determined by real-time PCR, normalized to the housekeeping gene β-actin. Gene knockdown effectiveness was expressed as a percentage of the blank control. […] VEGFR2-21-h1#, VEGFR2-21-h2#, VEGFR2-21-h5#, VEGFR2-21-h7#, VEGFR2-21-hm17#, VEGFR2-21-hm18#, VEGFR2-25-h3#, and VEGFR2- 25-h4# were selected and modified as indicated in Table 3 (SEQ ID Nos. 109-124).
The EC50 of candidate sequences before and after modification in different cells (MDA-MB-231, U87-MG and PANC-1) were compared. MDA-MB-231, PANC-1 and U87-MG cells were seeded in 24-well cell plates (1 × 10^5/well), and siRNA candidates (modified or unmodified) were transfected with multiple concentration gradients in different cells. Use the same procedure as the primary screen. Finally, the data were plotted using the software GraphPad Prism8 and EC50 values were calculated.

The mark [1] stands for this setting: MD-MB-231 cells, read-out: EC50 (nM, 24 h, 24well) Breast cancer MD-MB-231.
The mark [2] stands for this setting: PANC-1 cells, read-out: EC50 (nM, 24 h, 24well) Pancreatic cancer PANC-1.
The mark [3] stands for this setting: U87-MG cells, read-out: EC50 (nM, 24 h, 24well) Brain cancer U87-MG.

Results on nine substances are retold here after US20230323358A1, “COMPOSITION AND USE OF siRNAs AGAINST VEGFR2 AND TGF-BETA1 IN COMBINATION THERAPY FOR CANCER” (Sirnaomics, Inc., priority 2021, published 2023).

Where two headings read alike, the source gives them in different places. Oligonucleotides are written 5' to 3', each unit as a sugar letter and its base; * is a phosphorothioate linkage, no mark a phosphodiester; rarer units and linkages stand in square brackets, end groups in braces. Plain capitals give the bases only. {P} = phosphorylation (indicated by P); d = 2'-deoxy (DNA); m = 2'-O-methyl; r = 2'-OH (RNA); f = 2'-fluoro

What is called EC50 is the concentration at which the effect is half-maximal. With “VEGFR2-21-hm18#: siRNA targeting VEGFR2 mRNA; sense SEQ ID 77, antisense SEQ ID 120 (sense GGAAAAAACAAAACUGUAATT; antisense UUACAGUUUUGUUUUUUCCTT; sugars from the 5' end r19 d2, backbone not given here)”, the “knockdown effect of the modified sequence compared with unmodified” value (“knockdown effect … compared with unmodified” below) is given as “better than that of unmodified”. The concentration giving a half-maximal response (EC50) under setting [1] amounted to 3.26 nM. The half-maximal effective concentration (EC50) under setting [2] came out at 3.81 nM. Moreover, the concentration for a half-maximal effect (EC50) under setting [3] was found to be 3.17 nM.
“VEGFR2-21-hm18# mod: Modified (2′F, 2′OME, phosphorylation) siRNA targeting VEGFR2; sense SEQ ID 136, antisense SEQ ID 144 (sense mGmGmAmAmAmAfAfAfCmAmAmAmAmCmUmGmUmAmAdTdT; antisense {P}-mUfUmAmCmAmGmUmUmUmUmGmUmUfUmUmUmUmCmCdTdT)”: the half-maximal effective concentration (EC50) is 0.02 nM under setting [1], 0.06 nM under setting [2] and 1.57 nM under setting [3].
For the substance “VEGFR2-21-h7#: siRNA targeting VEGFR2 mRNA; sense SEQ ID 66, antisense SEQ ID 109 (sense GCUGACAUGUACGGUCUAUTT; antisense AUAGACCGUACAUGUCAGCTT; sugars from the 5' end r19 d2, backbone not given here)”, the 50% effective concentration (EC50) is, setting by setting: under setting [1], 1.72 nM; under setting [2], 3 nM; under setting [3], 49.5 nM.
As for “VEGFR2-21-h2#: siRNA targeting VEGFR2 mRNA; sense SEQ ID 61, antisense SEQ ID 104 (sense GGUCCAUUUCAAAUCUCAATT; antisense UUGAGAUUUGAAAUGGACCTT; sugars from the 5' end r19 d2, backbone not given here)”, the “knockdown effect … compared with unmodified” value is “better than that of unmodified”. Besides, the concentration giving a half-maximal response (EC50) under setting [1] was determined as 0.72 nM. In addition, the EC50 under setting [2] is 0.36 nM. Besides, the EC50 under setting [3] was determined as 10.7 nM.
For the substance “VEGFR2-25-h4#: siRNA targeting VEGFR2 mRNA; sense SEQ ID 44, antisense SEQ ID 87 (sense CCCUUGAGUCCAAUCACACAAUUAA; antisense UUAAUUGUGUGAUUGGACUCAAGGG; RNA, backbone not given here)”, the EC50 stood at 0.38 nM under setting [1], 0.13 nM under setting [2] and 5.39 nM under setting [3].
Take “VEGFR2-21-h1#: siRNA targeting VEGFR2 mRNA; sense SEQ ID 60, antisense SEQ ID 103 (sense GCCUAGUGUUUCUCUUGAUTT; antisense AUCAAGAGAAACACUAGGCTT; sugars from the 5' end r19 d2, backbone not given here)”: the “knockdown effect … compared with unmodified” value is listed as “better than that of unmodified”. Also, under setting [1], the EC50 amounted to 0.2 nM. The EC50 under setting [2] was determined as 0.92 nM. In addition, the EC50 under setting [3] came out at 1.25 nM.
Consider “VEGFR2-25-h3#: siRNA targeting VEGFR2 mRNA; sense SEQ ID 43, antisense SEQ ID 86 (sense GACCAACAUGGAGUCGUGUACAUUA; antisense UAAUGUACACGACUCCAUGUUGGUC; RNA, backbone not given here)”, for which the 50% effective concentration (EC50) runs as follows: under setting [1], 1.8 nM; under setting [2], 0.35 nM; under setting [3], 10.9 nM.
The corresponding values for “VEGFR2-21-h2#mod: Modified (2′F, 2′OME, phosphorylation) siRNA targeting VEGFR2; sense SEQ ID 132, antisense SEQ ID 140 (sense mGmGmUmCmCmAfUfUfUmCmAmAmAmUmCmUmCmAmAdTdT; antisense {P}-mUfUmGmAmGmAmUmUmUmGmAmAmAfUmGmGmAmCmCdTdT)” are 0.14 nM, 0.08 nM and 2.42 nM.
Regarding “VEGFR2-21-h1#mod: Modified (2′F, 2′OME, phosphorylation) siRNA targeting VEGFR2; sense SEQ ID 131, antisense SEQ ID 139 (sense mGmCmCmUmAmGfUfGfUmUmUmCmUmCmUmUmGmAmUdTdT; antisense {P}-mAfUmCmAmAmGmAmGmAmAmAmCmAfCmUmAmGmGmCdTdT)”, the EC50 came to 0.23 nM under setting [1], 0.07 nM under setting [2] and 0.99 nM under setting [3].
